Test results from patent US12473304B2, “Heterocyclic PAD4 inhibitors” (BRISTOL-MYERS SQUIBB COMPANY, priority 2020, dated 2025).

Target: human PAD4 (hPAD4) (Homo sapiens (Human), UniProt Q9UM07)
Assay: RFMS Human PAD4 Functional Assay 1
Assay type: biochemical
Conditions: RFMS assay 1; 5 nM hPAD4, 250 μM BAEE substrate, 50 μM calcium, 37° C.
How it was run: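 Recombinant hPAD4 (5 nM) was preincubated with compound (top 50 μM, 0.5% DMSO) for 30 min at 37 °C, then reacted with 250 μM BAEE for 90 min at 37 °C in pH 7.5 HEPES buffer with 50 μM calcium and 5 μM TPEN. Product was derivatized with phenyl glyoxal and quantified by RapidFire MS.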

Sequence of human PAD4 (hPAD4) (Q9UM07 whole entry): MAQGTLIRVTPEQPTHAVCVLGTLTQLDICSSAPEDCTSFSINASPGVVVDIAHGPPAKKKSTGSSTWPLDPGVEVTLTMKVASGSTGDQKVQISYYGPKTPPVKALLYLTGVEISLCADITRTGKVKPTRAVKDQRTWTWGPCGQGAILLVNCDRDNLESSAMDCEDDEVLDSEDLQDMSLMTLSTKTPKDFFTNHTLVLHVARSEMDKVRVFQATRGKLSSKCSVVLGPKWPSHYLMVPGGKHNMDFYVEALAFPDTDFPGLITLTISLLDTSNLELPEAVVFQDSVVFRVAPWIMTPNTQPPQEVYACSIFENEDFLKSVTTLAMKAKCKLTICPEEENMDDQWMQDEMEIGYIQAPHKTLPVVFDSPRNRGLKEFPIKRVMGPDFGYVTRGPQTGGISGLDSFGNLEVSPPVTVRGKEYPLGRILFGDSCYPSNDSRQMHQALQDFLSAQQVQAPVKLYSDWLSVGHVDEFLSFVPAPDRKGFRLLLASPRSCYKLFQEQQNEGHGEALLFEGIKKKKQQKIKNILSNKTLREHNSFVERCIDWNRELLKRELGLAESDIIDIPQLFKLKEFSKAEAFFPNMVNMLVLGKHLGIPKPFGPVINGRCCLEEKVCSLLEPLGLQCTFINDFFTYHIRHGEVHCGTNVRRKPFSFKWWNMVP

| SMILES | IC50 [nM] |
| --- | --- |
| CO[C@@H](C)C(=O)N1CCC(c2cc(F)cc3cc(-c4nn5cc(C(=O)N6CCC[C@@H](N)C6)ccc5c4C)n(CC4CC4)c23)CC1 [Example 499, (S)-1-(4-(2-(6-((R)-3-Aminopiperidine-1-carbonyl)-3-methylpyrazolo[1,5-a]pyridin-2-yl)-1-(cyclopropylmethyl)-5-fluoro-1H-indol-7-yl)piperidin-1-yl)-2-methoxypropan-1-one] | 150 |
| CO[C@@H](C)C(=O)N1CCC(c2cc(F)cc3cc(-c4nn5cc(C(=O)N6C[C@H](N)C[C@@H](F)C6)ccc5c4C)n(CC4CC4)c23)CC1 [Example 500, (S)-1-(4-(2-(6-((3R,5R)-3-Amino-5-fluoropiperidine-1-carbonyl)-3-methylpyrazolo[1,5-a]pyridin-2-yl)-1-(cyclopropylmethyl)-5-fluoro-1H-indol-7-yl)piperidin-1-yl)-2-methoxypropan-1-one] | 240 |
| COC(C)(C)C(=O)N1CCC(c2cc(F)cc3cc(-c4nn5cc(C(=O)N6C[C@H](N)C[C@@H](F)C6)ccc5c4C)n(CC4CC4)c23)CC1 [Example 501, 1-(4-(2-(6-((3R,5R)-3-Amino-5-fluoropiperidine-1-carbonyl)-3-methylpyrazolo[1,5-a]pyridin-2-yl)-1-(cyclopropylmethyl)-5-fluoro-1H-indol-7-yl)piperidin-1-yl)-2-methoxy-2-methylpropan-1-one] | 130 |
| COCC(=O)N1CCC(c2cc(F)cc3cc(-c4nn5cc(C(=O)N6CCC[C@@H](N)C6)ccc5c4C)n(CC4CC4)c23)CC1 [Example 502, (R)-1-(4-(2-(6-(3-Aminopiperidine-1-carbonyl)-3-methylpyrazolo[1,5-a]pyridin-2-yl)-1-(cyclopropylmethyl)-5-fluoro-1H-indol-7-yl)piperidin-1-yl)-2-methoxyethan-1-one] | 70 |
| COCC(=O)N1CCC(c2cc(F)cc3cc(-c4nn5cc(C(=O)N6C[C@H](N)C[C@@H](F)C6)ccc5c4C)n(CC4CC4)c23)CC1 [Example 503, 1-(4-(2-(6-((3R,5R)-3-Amino-5-fluoropiperidine-1-carbonyl)-3-methylpyrazolo[1,5-a]pyridin-2-yl)-1-(cyclopropylmethyl)-5-fluoro-1H-indol-7-yl)piperidin-1-yl)-2-methoxyethan-1-one] | 60 |
| Cc1c(-c2cc3cc(F)cc(C4CCN(C(=O)C5CC(O)(C(F)(F)F)C5)CC4)c3n2CC2CC2)nn2cc(C(=O)N3CCC[C@@H](N)C3)ccc12 (stereo partly drawn) [Example 504, (R)-(3-Aminopiperidin-1-yl)(2-(1-(cyclopropylmethyl)-5-fluoro-7-(1-(3-hydroxy-3-(trifluoromethyl)cyclobutane-1-carbonyl)piperidin-4-yl)-1H-indol-2-yl)-3-methylpyrazolo[1,5-a]pyridin-6-yl)methanone] | 110 |
| CC(=O)N1CCC(c2cc(F)cc3cc(-c4nn5cc(C(=O)N6CCC[C@@H](N)C6)ccc5c4C)n(CC4CC4)c23)CC1 [Example 506, (R)-1-(4-(2-(6-(3-Aminopiperidine-1-carbonyl)-3-methylpyrazolo[1,5-a]pyridin-2-yl)-1-(cylcopropylmethyl)-5-fluoro-1H-indol-7-yl)piperidin-1-yl)ethan-1-one] | 70 |
| CC(=O)N1CCC(c2cc(F)cc3cc(-c4nn5cc(C(=O)N6C[C@H](N)C[C@@H](F)C6)ccc5c4C)n(CC4CC4)c23)CC1 [Example 507, 1-(4-(2-(6-((3R,5R)-3-Amino-5-fluoropiperidine-1-carbonyl)-3-methylpyrazolo[1,5-a]pyridin-2-yl)-1-(cyclopropylmethyl)-5-fluoro-1H-indol-7-yl)piperidin-1-yl)ethan-1-one] | 170 |
| COCC(=O)N1CCC(c2nccc3cc(-c4nn5cc(C(=O)N6C[C@H](N)C[C@@H](F)C6)cc(OC)c5c4C)n(CC4CC4)c23)CC1 [Example 511, 1-(4-(2-(6-((3R,5R)-3-Amino-5-fluoropiperidine-1-carbonyl)-4-methoxy-3-methylpyrazolo[1,5-a]pyridin-2-yl)-1-(cyclopropylmethyl)-1H-pyrrolo[2,3-c]pyridin-7-yl)piperidin-1-yl)-2-methoxyethan-1-one] | 10 |
| COc1cc(C(=O)N2C[C@H](N)C[C@@H](F)C2)cn2nc(-c3cc4cccc(C5CN(C(=O)[C@H]6CC[C@H](O)CC6)C5)c4n3CC3CC3)c(C)c12 [Example 514, ((3R,5R)-3-Amino-5-fluoropiperidin-1-yl)(2-(1-(cyclopropylmethyl)-7-(1-((1R,4R)-4-hydroxycyclohexane-1-carbonyl)azetidin-3-yl)-1H-indol-2-yl)-4-methoxy-3-methylpyrazolo[1,5-a]pyridin-6-yl)methanone] | 60 |

More lines, now with the values ahead:

| IC50 [nM] | SMILES |
| --- | --- |
| 1040 | COc1cc(C(=O)N2CCC[C@@H](N)C2)cn2nc(-c3cc4cccc(C5CN(C(=O)C(C)(C)OC)C5)c4n3CC3CC3)c(C)c12 [Example 516, (R)-1-(3-(2-(6-(3-Aminopiperidine-1-carbonyl)-4-methoxy-3-methylpyrazolo[1,5-a]pyridin-2-yl)-1-(cyclopropylmethyl)-1H-indol-7-yl)azetidin-1-yl)-2-methoxy-2-methylpropan-1-one] |
| 60 | COc1cc(C(=O)N2CCC[C@@H](N)C2)cn2nc(-c3cc4cccc(C5CN(C(=O)[C@H]6CC[C@H](O)CC6)C5)c4n3CC3CC3)c(C)c12 [Example 517, ((R)-3-Aminopiperidin-1-yl)(2-(1-(cyclopropylmethyl)-7-(1-((1r,4r)-4-hydroxycyclohexane-1-carbonyl)azetidin-3-yl)-1H-indol-2-yl)-4-methoxy-3-methylpyrazolo[1,5-a]pyridin-6-yl)methanone] |
| 260 | COc1cc(C(=O)N2C[C@H](N)C[C@@H](F)C2)cn2nc(-c3cc4cccc(C5CN(C(=O)C(C)(C)OC)C5)c4n3CC3CC3)c(C)c12 [Example 518, 1-(3-(2-(6-((3R,5R)-3-Amino-5-fluoropiperidine-1-carbonyl)-4-methoxy-3-methylpyrazolo[1,5-a]pyridin-2-yl)-1-(cyclopropylmethyl)-1H-indol-7-yl)azetidin-1-yl)-2-methoxy-2-methylpropan-1-one] |
| 40 | COc1cc(C(=O)N2C[C@H](N)C[C@@H](F)C2)cn2nc(-c3cc4cccc(C5CN(C(=O)[C@H]6CC[C@@H](O)CC6)C5)c4n3CC3CC3)c(C)c12 [Example 519, ((3R,5R)-3-Amino-5-fluoropiperidin-1-yl)(2-(1-(cyclopropylmethyl)-7-(1-((1s,4s)-4-hydroxycyclohexane-1-carbonyl)azetidin-3-yl)-1H-indol-2-yl)-4-methoxy-3-methylpyrazolo[1,5-a]pyridin-6-yl)methanone] |
| 220 | COc1cc(C(=O)N2CCC[C@@H](N)C2)cn2nc(-c3cc4cccc(C5CN(C(=O)[C@H]6CC[C@@H](O)CC6)C5)c4n3CC3CC3)c(C)c12 [Example 520, ((R)-3-Aminopiperidin-1-yl)(2-(1-(cyclopropylmethyl)-7-(1-((1s,4s)-4-hydroxycyclohexane-1-carbonyl)azetidin-3-yl)-1H-indol-2-yl)-4-methoxy-3-methylpyrazolo[1,5-a]pyridin-6-yl)methanone] |
| 400 | COc1cc(C(=O)N2CCC[C@@H](N)C2)cn2nc(-c3cc4cccc(C5CN(C(=O)[C@H](C)OC)C5)c4n3CC3CC3)c(C)c12 [Example 523, (S)-1-(3-(2-(6-((R)-3-Aminopiperidine-1-carbonyl)-4-methoxy-3-methylpyrazolo[1,5-a]pyridin-2-yl)-1-(cyclopropylmethyl)-1H-indol-7-yl)azetidin-1-yl)-2-methoxypropan-1-one] |
| 280 | COc1cc(C(=O)N2C[C@H](N)C[C@@H](F)C2)cn2nc(-c3cc4cccc(C5CN(C(=O)[C@H](C)OC)C5)c4n3CC3CC3)c(C)c12 [Example 524, (S)-1-(3-(2-(6-((3R,5R)-3-Amino-5-fluoropiperidine-1-carbonyl)-4-methoxy-3-methylpyrazolo[1,5-a]pyridin-2-yl)-1-(cyclopropylmethyl)-1H-indol-7-yl)azetidin-1-yl)-2-methoxypropan-1-one] |
| 90 | COc1cc(C(=O)N2CCC[C@@H](N)C2)cn2nc(-c3cc4cccc(C5CN(C(=O)[C@@H](C)OC)C5)c4n3CC3CC3)c(C)c12 [Example 525, (R)-1-(3-(2-(6-((R)-3-Aminopiperidine-1-carbonyl)-4-methoxy-3-methylpyrazolo[1,5-a]pyridin-2-yl)-1-(cyclopropylmethyl)-1H-indol-7-yl)azetidin-1-yl)-2-methoxypropan-1-one] |
| 260 | COc1cc(C(=O)N2C[C@H](N)C[C@@H](F)C2)cn2nc(-c3cc4cccc(C5CN(C(=O)[C@@H](C)OC)C5)c4n3CC3CC3)c(C)c12 [Example 526, (R)-1-(3-(2-(6-((3R,5R)-3-Amino-5-fluoropiperidine-1-carbonyl)-4-methoxy-3-methylpyrazolo[1,5-a]pyridin-2-yl)-1-(cyclopropylmethyl)-1H-indol-7-yl)azetidin-1-yl)-2-methoxypropan-1-one] |
| 50 | COCC(=O)N1CC(c2cccc3cc(-c4nn5cc(C(=O)N6C[C@H](N)C[C@@H](F)C6)cc(OC)c5c4C)n(CC4CC4)c23)C1 [Example 527, 1-(3-(2-(6-((3R,5R)-3-Amino-5-fluoropiperidine-1-carbonyl)-4-methoxy-3-methylpyrazolo[1,5-a]pyridin-2-yl)-1-(cyclopropylmethyl)-1H-indol-7-yl)azetidin-1-yl)-2-methoxyethan-1-one] |
| 15000 | COCC(=O)N1CC(c2cccc3cc(-c4nn5cc(C(=O)N6CCC[C@@H](N)C6)cc(OC)c5c4C)n(CC4CC4)c23)C1 [Example 528, (R)-1-(3-(2-(6-(3-Aminopiperidine-1-carbonyl)-4-methoxy-3-methylpyrazolo[1,5-a]pyridin-2-yl)-1-(cyclopropylmethyl)-1H-indol-7-yl)azetidin-1-yl)-2-methoxyethan-1-one] |
